Laboratory results reported in patent US20070259939A1, “USING NALTREXONE AS A MULTI-PURPOSE HEALTH SUPPLEMENT TO IMPROVE THE HUMAN CONDITION AND PREVENTING MULTIPLE DISEASES AND INFIRMITIES BY STIMULATING IMMUNE SYSTEM VITALITY AND ROBUSTNESS” (ACCELERATED TECHNOLOGIES, priority 2006, published 2007).

Assays:
alcohol cravings = assay: inhibition of alcohol cravings by low dose naltrexone; assay type: in vivo, human
Excerpt: Naltrexone is already known to help cure addictive behaviors, such as alcoholism, opiate, narcotic and tobacco addiction. With respect to the treatment of alcohol addiction, naltrexone may be effective because it eliminates the neural positive reinforcement normally experienced in the brain by blocking the receptors that provide the stimulatory effect felt from alcohol. As a result of the lack of positive reinforcement, there is no internal incentive to drink alcohol. In a similar manner, in another embodiment of the invention, the daily administration of low dose naltrexone may greatly reduce or eliminate the tendency to engage in addictive behavior by preventing its onset. This may be accomplished by diminishing any potential internal rewards for using chemical substances in the first place. […] The diminished desire for alcohol resulting from a low dose of naltrexone may be effective for more than 24 hours, thus for example a dose administered at 7:00 pm one evening may continue to inhibit alcohol cravings throughout the following evening. A person in need of curbing an alcoholic appetite may take a pill, either before or along with the drink, and discover no desire for a second or third drink. To further eliminate an alcoholic appetite, a series of 1.5 mg naltrexone doses may be taken without alcohol, starting for example at about 6:00 pm.

cancer patients = details: low dose naltrexone; cited from earlier work
beta-endorphins = details: small doses each night; following days; patients who initially had deficient endorphin levels; cited from earlier work
[1] = low dose levels; cited from earlier work

For `O=C1CC[C@@]2(O)[C@H]3Cc4ccc(O)c5c4[C@@]2(CCN3CC2CC2)[C@H]1O5` [naltrexone], the “effect on alcohol cravings” value (alcohol cravings; low dosage, around 4.5 mg) is listed as “greatly inhibit alcohol cravings”, the “duration of diminished desire for alcohol” value (alcohol cravings; low dose of naltrexone) is listed as “more than 24 hours” and the “cancer patients with a positive effect (for example stopping the spread of tumors)” value (cancer patients) is listed as no more than 65%. The “cancer patients with remission” value (cancer patients) was 30%, the “increase in beta-endorphins circulating in the blood” value (beta-endorphins) was 200-300% and the side effects [1] was “not known to have any important side effects”.
